Series [1] in a line: method code SF, from DOI: 10.1016/j.ejps.2014.11.002, PMID: 25447745. The settings on record: pH 7.4.
Series [2] can be described thus: method code SF-CR+AS, from Korenman, Y. (1974). Extraction of 2-halophenols from aqueous solutions. Zh. Prikl. Khim., 47(7)1663-1666.
Test in series [3]: not given
The source holds these as a separate data set.

Series [4] is described as follows: method code G-HPLC, from He, Y.; Zhao, Y.; Wang, L.; An, F.; Mo, H.; Yang, K.; Liu, Y.; Yu, G.; Xu, X. (1994). Determination of n-octanol/water partition coefficient of organic compound. Huanjing Huaxue, 13(3)195-197.
Test in series [5]: not given
This is another data set of the same source.

Series [6] in a line: method code SF-HPLC, from DOI: 10.1002/ps.2780370106. To be noted: pH 0.0.
Test in series [7]: not given
The source holds these as a separate data set.

The nature of series [8]: method code SF-CR+AS, from Korenman, I.; Kotelyanskaya, B.; Nefedova, A. (1976). Extraction of mononitrophenols from aqueous solutions. Zh. Prikl. Khim., 49(5)1150-1152.
The nature of series [9]: from Büchel, H.; Draber, W.; Trebst, A.; Pistorius, E. (1966). Inhibition of photosynthetic reactions in isolated chloroplasts by benzimidazole-type herbicides and their structure-activity relation, …. The settings on record: pH 7.0.
A short description of series [10]: method code SF-GLC, from DOI: 10.1002/jps.2600641120, PMID: 1195116.
Series [11] can be described thus: method code SF-AS, from Halmekoski, J.; Hannikainen, H. (1964). Rm values of hydroxy-substituted benzoic acids and partition coefficients of the acids between water and aliphatic alcohols. Suomen Kemist. B, 37, 221-226.
Test in series [12]: not given
This is another data set of the same source.

The nature of series [13]: method code SF-GLC, from Park, Y.; Park, S. (2000). Determination and prediction of octanol/water partition coefficients and air-water partition coefficients for environmental toxic chemicals. 11(7)773-779.
The nature of series [14]: method code SF-AS, from DOI: 10.1016/0006-2952(65)90227-3, PMID: 14322976. The settings on record: pH 6.8.
Series [15] can be described thus: method code SF-AS, from DOI: 10.1016/s0022-3565(25)24763-2, PMID: 2019981. The settings on record: pH 7.4.
The nature of series [16]: method code SF-GLC,RC, from DOI: 10.1016/0048-3575(73)90050-3.
Test in series [17]: not given
The source holds these as a separate data set.

A short description of series [18]: method code SF-AS, from Korenman, I.; Lineva, S.; Gezikova, N. (1978). Extraction of naphthol-sulfonic acids from aqueous solution. Zh. Prikl. Khim., 51(4)869-871.
Series [19] in a line: method code SF, from DOI: 10.1021/jm00307a001, PMID: 5637185.
Series [20] can be described thus: method code SF, from DOI: 10.1016/j.tca.2016.07.020. The settings on record: pH 7.4.
A short description of series [21]: method code SF-AS, from DOI: 10.1016/0006-2952(74)90620-0, PMID: 4822742. To be noted: pH 7.4.
For series [22] the following is noted: pH 5.6.
Series [23] is described as follows: from Tehrany, E.A.; Desobry, S. (2005). Comparison between the different calculation methods of partition coefficient of aroma compounds with a difference chemical classes in octanol/water system. ….
Series [24] is described as follows: method code SF, from PMID: 8265709. The settings on record: pH 7.4.
Test in series [25]: not given
The source holds these as a separate data set.

The nature of series [26]: method code SF-AS, from Korenman, I.; Nefedova, E.; Dyukova, I. (1977). Extraction of picramic acid. Int J Clin Pharmacol Ther Toxicol, 51(5)734-735. The settings on record: pH 7.4.
A short description of series [27]: method code SF-AS, from DOI: 10.1093/ajhp/38.9.1308, PMID: 7282713. To be noted: pH 7.4.
Series [28] in a line: method code SF, from DOI: 10.1016/0005-2744(69)90103-x, PMID: 4387594.
Test in series [29]: not given
The source holds these as a separate data set.

A short description of series [30]: method code SF, from DOI: 10.1080/09553009014551091, PMID: 1970998. To be noted: pH 7.4.
Test in series [31]: not given
This is another data set of the same source.

Test in series [32]: not given
This is another data set of the same source.

Series [33] in a line: method code SF-AS, from DOI: 10.1016/s0045-6535(98)00368-3.
The nature of series [34]: method code SF-GLC, from DOI: 10.1016/s0021-9673(00)92516-0.
The nature of series [35]: method code SF, from DOI: 10.1016/0043-1354(79)90201-x.
Series [36] is described as follows: method code SF-AS, from DOI: 10.1016/s0006-3495(76)85671-8, PMID: 1247644. To be noted: pH 8.0.
Series [37] in a line: method code SF-CR+AS, from Korenman, I.; Lineva, S.; Tishchenko, M. (1979). The influence of substituents on the extraction of phenols. Russ. J. Phys. Chem., 53(11)1678-1679. To be noted: pH 2.5.
Series [38] can be described thus: method code SF-CR+AS, from Korenman, Y. (1973). Extraction of guaiacol from aqueous solutions. Zh. Prikl. Khim., 46(6)1391-1394. To be noted: pH 2.0.
Series [39] can be described thus: method code SF, from DOI: 10.1007/bf00253009, PMID: 7273265. To be noted: pH 7.4.
Test in series [40]: not given
The source holds these as a separate data set.

Series [41] is described as follows: method code SF, from Kruglik, P.; Leschev, M.; Rakhman'ko, M.; Bubel, N.; Asratyan, V. (1991). Extraction of 1,2,4-triazole and its derivatives by organic solvents. 64(8)1721-1724.
A short description of series [42]: method code SF-ESR, from DOI: 10.1111/1523-1747.ep12319780, PMID: 2551971. To be noted: pH 7.0.
Series [43] in a line: method code SF-RC, from DOI: 10.1111/j.2042-7158.1987.tb03173.x, PMID: 2886623.
Series [44] in a line: method code SF, from DOI: 10.1248/yakushi1947.93.11_1452, PMID: 4273378.
Series [45] can be described thus: method code SF, from DOI: 10.1248/yakushi1947.99.3_235. The settings on record: pH 11.0.

Each structure is given as a SMILES string.

For the compound `O=[N+]([O-])O[C@H]1CO[C@H]2[C@@H]1OC[C@H]2O[N+](=O)[O-]`, the logD in series [1] was found to be 1.2.
`Oc1ccccc1I` had a logP in series [2] of 2.64.
With `CCC1C(=O)NC(=O)N(C)C1=O` (stereo unspecified), the logP was found to be 0.15.
Compound `Oc1cccc(Cl)c1Cl` showed a logP in series [3] of 2.98.
With `Clc1ccccc1Cl`, the logP in series [4] was determined as 3.34.
Compound `CSc1ncnc2[nH]cnc12` had a logP in series [5] of 0.57.
Regarding `Cc1c(F)c(F)c(C(=O)O)c(F)c1F`, in [6], the logD amounted to 3.15.
In turn, `O=C(O)c1ccccc1F` gave a logP in [7] of 1.63.
With `O=[N+]([O-])c1ccc(O)cc1`, the logP in series [8] was 1.95.
As for `Clc1nc2c(Cl)c(Cl)c(Cl)c(Cl)c2[nH]1`, in series [9], the logD came out at 4.53.
In [10], `C1CCc2nnnn2CC1` came in with a logP of 0.14.
In the case of `O=C(O)c1cccc(O)c1O`, the logP in series [11] was 1.2.
Consider `CCCCCCC`, for which the logP in [12] was found to be 4.48.
With `CC(=O)OCCC(C)C`, the logP in series [13] was 2.55.
With `O=c1ccccc(O)c1`, in series [14], the logD is 0.81.
As for `CCn1cccc(O)c1=O`, in series [15], the logD was 0.08.
For `ClCc1ccccc1`, in series [16], the logP stood at 2.3.
Turning to `OCCC(F)(F)C(F)(F)C(F)(F)C(F)(F)F`, the logP in series [17] stood at 3.28.
With `CC1=C(C(N)=O)SCCO1`, the logP in [18] was -0.22.
In turn, `C=CC(CC)OC(N)=O` (stereo unspecified) displayed a logP in series [19] of 1.09.
As to `NC(=S)c1ccccn1`, the logD in series [20] stood at 1.14.
For `O=S1(=O)N=CNc2ccccc21`, the logD in series [21] is 0.18.
The compound `NC(=O)c1ccc([N+](=O)[O-])cc1` registered a logD in [22] of 0.82.
Take `CCCCCC=O`: in series [23], the logP is 1.85.
Consider `Cn1c(=O)c2[nH]cnc2n(C)c1=O`, for which the logD in [24] is -0.18.
Take `CCC(CC)C(=O)NC(N)=O`: the logP in series [25] stood at 0.91.
`CC(C)c1cnc([N+](=O)[O-])n1C` displayed a logD in series [26] of 1.09.
Consider `Cc1ncsc1CCCl`, for which the logD in [27] worked out at 2.12.
As to `Nc1cccc(Br)c1`, the logP in [28] stood at 2.1.
In series [29], `Cc1cccc(O)c1` had a logP of 2.01.
As for `O=[N+]([O-])c1nccn1COC(CO)CO`, the logD in [30] was -1.03.
In series [31], `Clc1ccc(Cl)cc1` registered a logP of 3.48.
For the compound `CC(C)(C)OCCO`, the logP in series [32] is 0.39.
As to `COc1cc(OC)ncn1`, in series [33], the logP worked out at 0.96.
In series [34], `ClCc1ccc(Cl)cc1Cl` displayed a logP of 3.82.
`NC(=O)COCc1ccco1`: in series [35], the logP is -0.11.
As for `Cc1nc2c(Cl)c(Cl)c(Cl)c(Cl)c2[nH]1`, the logD in series [36] was found to be 2.83.
With `Cc1cc(N=O)ccc1O`, the logD in series [37] stood at 1.71.
The compound `COc1ccccc1O` registered a logD in series [38] of 1.35.
Take `O=C(Cn1ccnc1[N+](=O)[O-])N(CO)CO`: in [39], the logD was -1.59.
For the compound `CO[C@@H]([C@H](O)[C@H](O)CO)[C@@H](O)C=O`, the logP in [40] is -3.
Regarding `CC(C)CCn1cnc([N+](=O)[O-])n1`, the logP in [41] stood at 1.26.
On to `CC1(C)COC(C)(C)N1O`, for which, in series [42], the logD worked out at 0.48.
Regarding `OC[C@@H](O)[C@@H](O)[C@H](O)[C@H](O)CO` (racemic), the logP in [43] was -2.47.
As for `CNC(=O)c1cccnc1`, in [44], the logP stood at 0.
In [45], `OCCC1CCCCN1` (stereo unspecified) returned a logD of 0.11.

The values above are taken from the SangsterLogP compilation.
